The test system of one series is Boophilus microplus. The experiment in a line: Boophilus microplus - injection test. Format: in vivo. The following applies: application rate 20 μg/animal; injected into engorged adult female ticks; laying of fertile eggs, after 7 days. The gist of the method:
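Compound dissolved in DMSO (10 mg per 0.5 ml, then diluted with DMSO to test concentration); 1 μl injected into the abdomen of 5 engorged adult female ticks, which are then held in a climate-controlled room. Efficacy judged after 7 days by laying of fertile eggs.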

The subject of series [1] is Ctenocephalides felis. Nature of the series: Ctenocephalides felis - oral test. The class given is in vivo. The following applies: application rate 100 ppm in citrated cattle blood; adult fleas; kill after 2 days. The gist of the method:
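About 20 unfed adult cat fleas fed through a parafilm membrane on citrated cattle blood containing compound, dosed from a DMSO stock. Kill in % scored after 2 days; 100% means all fleas dead.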

A short description of series [2]: logP determination by HPLC on a reversed-phase column (C18), EEC Directive 79/831 Annex V.A8. The class given is physicochemical. The note with it: for logP^a): HPLC-MS method a), Table I-T3; for log P: HPLC-MS, reversed-phase column (C18).
The next series deals with Musca domestica. Nature of the series: Musca domestica test. The class given is in vivo. The note with it: adult houseflies, kill after 2 days. The protocol: (§1) Solvent: dimethyl sulphoxide
(§2) To produce an appropriate active ingredient formulation, 10 mg of active ingredient are mixed with 0.5 ml of dimethyl sulphoxide, and the concentrate is diluted with water to the desired concentration.
Vessels containing a sponge treated with sugar solution and the active ingredient formulation of the desired concentration are populated with 10 adult houseflies (Musca domestica).
After 2 days, the kill in % is determined. 100% means that all of the flies have been killed; 0% means that none of the flies have been killed.

Series [3] deals with Ctenocephalides felis. Nature of the series: Ctenocephalides felis - in vitro contact tests with adult cat fleas. The class given is in vivo. The note with it: application rate 5 μg/cm^2 (=500 g/ha), after 48 h (dead or moribund). The protocol:
Ctenocephalides felis—In Vitro Contact Tests with Adult Cat Fleas
For the coating of the test tubes, 9 mg of active ingredient are first dissolved in 1 ml of acetone p.a. and then diluted to the desired concentration with acetone p.a. 250 μl of the solution are distributed homogeneously on the inner walls and base of a 25 ml test tube by turning and rocking on an orbital shaker (rocking rotation at 30 rpm for 2 h). With 900 ppm active ingredient solution and internal surface area 44.7 cm^2, given homogeneous distribution, an area-based dose of 5 μg/cm^2 is achieved.
After the solvent has evaporated off, the tubes are populated with 5-10 adult cat fleas (Ctenocephalides felis), sealed with a perforated plastic lid and incubated in a horizontal position at room temperature and ambient humidity. After 48 h, efficacy is determined. To this end, the test tubes are stood upright and the fleas are knocked to the base of the tube. Fleas which remain motionless at the base or move in an uncoordinated manner are considered to be dead or moribund.
100% efficacy means that all the fleas were dead or moribund. 0% efficacy means that no fleas were harmed.

A further series has as its system Lucilia cuprina. The experiment in a line: Lucilia cuprina test. The following applies: application rate 100 ppm; L1 larvae in minced horsemeat; kill after 2 days. The class given is in vivo. The procedure: as §1, §2
About 20 L1 larvae of the Australian sheep blowfly (Lucilia cuprina) are transferred into a test vessel containing minced horsemeat and the active ingredient preparation of the desired concentration.
After 2 days, the kill in % is determined. 100% means that all the larvae have been killed; 0% means that none of the larvae have been killed.

The structures appear in SMILES notation.

For the molecule `Cc1cc(C(F)(C(F)(F)F)C(F)(F)F)cc(C)c1-n1cc(-c2cccc(C(=O)NC3CC3)c2)cn1` [I-T3-29], the efficacy in the series with Boophilus microplus, with Ctenocephalides felis [1], with Musca domestica (application rate 100 ppm), in the series on Ctenocephalides felis [3] and in the series on Lucilia cuprina was 100% throughout. Besides, in series [2], the “logP^a)” value is 3.3.

One may read the log P as the decadic logarithm of the partition coefficient of the neutral form, usually between octanol and water. Consider `O=C(NC1CC1)c1cc(-c2cnn(-c3c(Cl)cc(C(F)(C(F)(F)F)C(F)(F)F)cc3Cl)c2)cnc1NC1CC1` [I-T3-137], for which the efficacy in the series with Boophilus microplus is reported as 100%; in the series on Ctenocephalides felis [1], 100%; with Musca domestica (application rate 100 ppm), 100%; with Ctenocephalides felis [3], 100%; with Lucilia cuprina, 80%. Besides, the “log P” value in series [2] amounted to 3.4.

With `O=C(NC1CC1)c1cc(-c2cnn(-c3ccc(C(F)(C(F)(F)F)C(F)(F)F)cc3Cl)c2)ccc1Cl` [I-T3-31], the efficacy with Boophilus microplus, with Ctenocephalides felis [1], in the series with Musca domestica (application rate 100 ppm), with Ctenocephalides felis [3] and in the series on Lucilia cuprina was 100% each time. Further, the “logP^a)” value in series [2] is on record as 4.3.

With `CNc1ncc(-c2cnn(-c3c(Cl)cc(C(F)(C(F)(F)F)C(F)(F)F)cc3Cl)c2)cc1C(=O)NC1CC1` [I-T3-136], the efficacy in the series with Boophilus microplus, in the series on Ctenocephalides felis [1], with Musca domestica (application rate 100 ppm), with Ctenocephalides felis [3] and in the series with Lucilia cuprina was 100% throughout. For the same molecule, the lipophilicity (log P) in series [2] is given as 3.5.

For `Cc1ncc(-c2cnn(-c3c(Cl)cc(C(F)(F)F)cc3Cl)c2)cc1C(=O)NC1CC1` [I-T3-127], the efficacy with Boophilus microplus is on record as 100%; with Ctenocephalides felis [1] it was 100%; with Ctenocephalides felis [3] it was 100%; with Lucilia cuprina, 90%. In series [2], the “log P” value worked out at 2.5.

For `COCCNc1ncc(-c2cnn(-c3c(Cl)cc(C(F)(C(F)(F)F)C(F)(F)F)cc3Cl)c2)cc1C(=O)NC1CC1` [I-T3-138], the “log P” value in series [2] turned out to be 4.1. The molecule further showed an efficacy in the series with Ctenocephalides felis [3] of 100%.

Take `CCNC(=O)c1cc(-c2cnn(-c3c(Cl)cc(C(F)(F)F)cc3Cl)c2)cnc1C` [I-T3-147]: the “log P” value in series [2] came out at 4.0. This molecule also had an efficacy in the series with Ctenocephalides felis [3] of 100%.

`Cc1cc(C(F)(C(F)(F)F)C(F)(F)F)cc(C)c1-n1cc(-c2cccc(C(=O)NC3CC3)c2F)cn1` [I-T3-9]: the efficacy with Boophilus microplus, in the series on Ctenocephalides felis [1], in the series with Ctenocephalides felis [3] and in the series on Lucilia cuprina was 100% in each case. Moreover, the “logP^a)” value in series [2] is on record as 4.3.

Take `Cc1ncc(-c2cnn(-c3c(Cl)cc(C(F)(F)F)cc3Cl)c2)cc1C(=O)N(C)C1(C#N)CC1` [I-T3-132]: the efficacy in the series on Boophilus microplus, with Ctenocephalides felis [1] and in the series on Ctenocephalides felis [3] was 100% throughout. In addition, the “log P” value in series [2] is recorded as 2.9.

The molecule `N#CC1(CNC(=O)c2cc(-c3cnn(-c4c(Cl)cc(C(F)(C(F)(F)F)C(F)(F)F)cc4C(F)(F)F)c3)ccc2Cl)CC1` [I-T3-199] showed an efficacy with Ctenocephalides felis [3] of 100%.

In the case of `Cc1ncc(-c2cnn(-c3c(Cl)cc(C(F)(F)F)cc3Cl)c2)cc1C(=O)NC1(C#N)CC1` [I-T3-129], the efficacy with Boophilus microplus stood at 100%; in the series with Ctenocephalides felis [1] it was 100%; with Musca domestica (application rate 100 ppm), 80%; in the series on Ctenocephalides felis [3], 100%. Also, the “log P” value in series [2] stood at 2.6.

Take `Cc1ncc(-c2cnn(-c3c(Cl)cc(C(F)(F)F)cc3Cl)c2)cc1C(=O)N(C)C1CC1` [I-T3-128]: the efficacy in the series with Boophilus microplus, in the series with Ctenocephalides felis [1] and in the series with Ctenocephalides felis [3] was 100% in each case. Moreover, the “log P” value in series [2] is reported as 2.8.

As for `Cc1cc(C(F)(C(F)(F)F)C(F)(F)F)cc(C)c1-n1cc(-c2cccc(C(=O)NC3(C#N)CC3)c2)cn1` [I-T3-30], the efficacy was 100% in the series on Boophilus microplus; 100% in the series with Ctenocephalides felis [1]; 90% with Musca domestica (application rate 100 ppm); 100% with Ctenocephalides felis [3]; 100% in the series with Lucilia cuprina. For the same molecule, in series [2], the “logP^a)” value is 3.2.

In the case of `O=C(NC1CC1)c1cc(-c2cnn(-c3ccc(C(F)(C(F)(F)F)C(F)(F)F)cc3OC(F)(F)F)c2)ccc1Cl` [I-T3-35], the efficacy worked out at 100% in the series with Boophilus microplus, 100% in the series on Ctenocephalides felis [1], 80% in the series on Musca domestica (application rate 4 ppm) and 100% with Lucilia cuprina. The “logP^a)” value in series [2] is on record as 4.7.

`Cc1cc(C(F)(C(F)(F)F)C(F)(F)F)cc(C)c1-n1cc(-c2ccc(Cl)c(C(=O)NCC(F)(F)F)c2)cn1` [I-T3-2]: the efficacy with Boophilus microplus, with Ctenocephalides felis [1], in the series on Musca domestica (application rate 100 ppm) and in the series with Lucilia cuprina was 100% each time. For the same molecule, the “logP^a)” value in series [2] worked out at 4.7.

For `Cc1cc(C(F)(C(F)(F)F)C(F)(F)F)cc(C)c1-n1cc(-c2ccc(Cl)c(C(=O)NC3(C#N)CC3)c2F)cn1` [I-T3-65], the efficacy in the series on Boophilus microplus, in the series on Ctenocephalides felis [1], in the series with Musca domestica (application rate 100 ppm) and in the series with Lucilia cuprina was 100% in each case. In addition, in series [2], the “logP^a)” value turned out to be 4.3.

On to `N#CC1(NC(=O)c2cc(-c3cnn(-c4ccc(C(F)(C(F)(F)F)C(F)(F)F)cc4OC(F)(F)F)c3)ccc2Cl)CC1` [I-T3-34], for which the efficacy with Boophilus microplus, in the series on Ctenocephalides felis [1], in the series with Musca domestica (application rate 100 ppm) and with Lucilia cuprina was 100% throughout. In series [2], the “logP^a)” value is reported as 4.6.

On to `O=C(NC1CC1)c1c(Cl)ccc(-c2cnn(-c3c(Cl)cc(C(F)(C(F)(F)F)C(F)(F)F)cc3Cl)c2)c1F` [I-T3-73], for which the efficacy with Boophilus microplus, in the series with Ctenocephalides felis [1], in the series with Musca domestica (application rate 100 ppm) and with Lucilia cuprina was 100% each time. In addition, the “logP^a)” value in series [2] amounted to 4.5.

For orientation: logP means a log measure of how a compound divides between an organic and an aqueous phase. A high value points to higher lipophilicity. For `Cc1cc(C(F)(C(F)(F)F)C(F)(F)F)cc(C)c1-n1ccc(-c2ccc(Cl)c(C(=O)NC3CC3)c2)c1` [I-T46-2], the efficacy with Boophilus microplus, in the series on Ctenocephalides felis [1], in the series on Ctenocephalides felis [3] and in the series with Lucilia cuprina was 100% in each case. Besides, the logP in series [2] (HPLC, reversed-phase C18, acetonitrile/water with formic acid, 55° C.) was determined as 5.0.

For the molecule `Cc1cc(C(F)(C(F)(F)F)C(F)(F)F)cc(C)c1-n1cc(-c2cc(C(=O)NC3(C#N)CC3)c(Cl)cc2F)cn1` [I-T3-17], the efficacy in the series on Boophilus microplus is 100%; in the series on Ctenocephalides felis [1], 95%; in the series on Ctenocephalides felis [3], 100%; with Lucilia cuprina, 100%. The “logP^a)” value in series [2] came to 4.4.

As for `CCc1cc(C(F)(C(F)(F)F)C(F)(F)F)ccc1-n1cc(-c2cncc(C(=O)NC3CC3)c2)cn1` [I-T3-79], the efficacy came to 100% in the series on Boophilus microplus, 95% in the series with Ctenocephalides felis [1], 80% with Musca domestica (application rate 100 ppm) and 80% with Lucilia cuprina. Further, in series [2], the “logP^a)” value came to 3.3.

As for `COc1ncc(-c2cnn(-c3c(C)cc(C(F)(C(F)(F)F)C(F)(F)F)cc3C)c2)cc1C(=O)N(C)C1CC1` [I-T3-144], the efficacy was found to be 100% in the series with Boophilus microplus, 90% with Ctenocephalides felis [1], 100% with Musca domestica (application rate 100 ppm) and 100% in the series with Lucilia cuprina. The “log P” value in series [2] was found to be 4.4.

The values above are taken from patent US9758485B2, “Compounds for controlling arthropods” (priority 2013, dated 2017).
